The record followed here is patent publication US8957064B2, “Fused pyrimidines” (Bayer Intellectual Property GmbH, priority 2009, dated 2015).

One may read the IC50 as the concentration that inhibits the measured activity by half.

For test [1], the target named is His-tagged human recombinant kinase full-length Akt2 activated by PDK1 (Homo sapiens (Human), UniProt P31751). In words: Akt2 kinase assay (Akt2 TR-FRET assay, Biological Assay 2.0). Type of test: biochemical. The note with it: 10 μM ATP, 1 μM biotinylated peptide substrate, 60 min at 22° C. The source says:
Biological Assay 2.0: Akt2 Kinase Assay
Akt2 inhibitory activity of compounds of the present invention was quantified employing the Akt2 TR-FRET assay as described in the following paragraphs.
His-tagged human recombinant kinase full-length Akt2 expressed in insect cells and activated by PDK1 was purchased form Invitrogen (part number PV 3975). As substrate for the kinase reaction the biotinylated peptide biotin-Ahx-KKLNRTLSFAEPG (C-terminus in amide form) was used which can be purchased e.g. from the company Biosynthan GmbH (Berlin-Buch, Germany).
(§1) For the assay 50 nl of a 100 fold concentrated solution of the test compound in DMSO was pipetted into a black low volume 384 well microtiter plate (Greiner Bio-One, Frickenhausen, Germany), 2 μl of a solution of Akt2 in assay buffer [50 mM TRIS/HCl pH 7.5, 5 mM MgCl2, 1 mM dithiothreitol, 0.02% (v/v) Triton X-100 (Sigma)] were added and the mixture was incubated for 15 min at 22° C. to allow prebinding of the test compounds to the enzyme before the start of the kinase reaction. Then the kinase reaction was started by the addition of 3 μl of a solution of adenosine-tri-phosphate (ATP, 16.7 μM=>final conc. in the 5 μl assay volume is 10 μM) and substrate (1.67 μM=>final conc. in the 5 μl assay volume is 1 μM) in assay buffer and the resulting mixture was incubated for a reaction time of 60 min at 22° C. The concentration of Akt2 in the assay was adjusted depending of the activity of the enzyme lot and was chosen appropriate to have the assay in the linear range, typical enzyme concentrations were in the range of about 0.2 ng/μl (final conc. in the 5 μl assay volume).
(§2) The reaction was stopped by the addition of 5 μl of a solution of HTRF detection reagents (200 nM streptavidine-XL665 [Cisbio] and 1.5 nM anti-phosho-Serine antibody [Millipore, cat. #35-001] and 0.75 nM LANCE Eu-W 1024 labeled anti-mouse IgG antibody [Perkin Elmer]) in an aqueous EDTA-solution (100 mM EDTA, 0.1% (w/v) bovine serum albumin in 50 mM HEPES/NaOH pH 7.5).
(§3) The resulting mixture was incubated 1 h at 22° C. to allow the binding of the biotinylated phosphorylated peptide to the streptavidine-XL665 and the antibodies. Subsequently the amount of phosphorylated substrate was evaluated by measurement of the resonance energy transfer from the anti-mouse-IgG-Eu-Chelate to the streptavidine-XL665. Therefore, the fluorescence emissions at 620 nm and 665 nm after excitation at 350 nm was measured in a TR-FRET reader, e.g. a Rubystar (BMG Labtechnologies, Offenburg, Germany) or a Viewlux (Perkin-Elmer). The ratio of the emissions at 665 nm and at […] was taken as the measure for the amount of phosphorylated substrate. The data were normalised (enzyme reaction without inhibitor=0% inhibition, all other assay components but no enzyme=100% inhibition).
(In general: Time-resolved FRET reads energy transfer from a long-lived donor to a nearby acceptor.)

The target in test [2] is His-tagged human recombinant kinase full-length Akt1 (Homo sapiens (Human), UniProt P31749). Description: Akt1 kinase assay (Akt1 TR-FRET assay, Biological Assay 1.0). It counts as biochemical. The note with it: 10 μM ATP, 1 μM biotinylated peptide substrate, 60 min at 22° C.
Chain of His-tagged human recombinant kinase full-length Akt1 (P31749 whole entry): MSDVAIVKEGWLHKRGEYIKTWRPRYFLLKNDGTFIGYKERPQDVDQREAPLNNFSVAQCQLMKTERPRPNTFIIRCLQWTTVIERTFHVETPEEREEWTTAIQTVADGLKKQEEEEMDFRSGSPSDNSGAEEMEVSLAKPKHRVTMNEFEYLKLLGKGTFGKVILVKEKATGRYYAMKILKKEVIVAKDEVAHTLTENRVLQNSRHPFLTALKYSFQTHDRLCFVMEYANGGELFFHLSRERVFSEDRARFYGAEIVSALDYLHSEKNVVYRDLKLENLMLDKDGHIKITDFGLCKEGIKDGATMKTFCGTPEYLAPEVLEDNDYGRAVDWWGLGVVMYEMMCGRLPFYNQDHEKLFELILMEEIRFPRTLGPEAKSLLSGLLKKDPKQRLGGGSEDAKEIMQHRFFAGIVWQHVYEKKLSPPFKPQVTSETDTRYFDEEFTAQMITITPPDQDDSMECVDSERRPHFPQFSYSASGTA
Text: Biological Assay 1.0: Akt1 Kinase Assay
Akt1 inhibitory activity of compounds of the present invention may be quantified employing the Akt1 TR-FRET assay as described in the following paragraphs. His-tagged human recombinant kinase full-length Akt1 expressed in insect cells was purchased form Invitrogen (part number PV 3599). As substrate for the kinase reaction the biotinylated peptide biotin-Ahx-KKLNRTLSFAEPG (C-terminus in amide form) was used which can be purchased e.g. from the company Biosynthan GmbH (Berlin-Buch, Germany).
as §1, with “Akt1” for “Akt2”, “0.05” for “0.2”
as §2
as §3, with “HTRF” for “TR-FRET”

Chain of His-tagged human recombinant kinase full-length Akt2 activated by PDK1 (P31751 whole entry): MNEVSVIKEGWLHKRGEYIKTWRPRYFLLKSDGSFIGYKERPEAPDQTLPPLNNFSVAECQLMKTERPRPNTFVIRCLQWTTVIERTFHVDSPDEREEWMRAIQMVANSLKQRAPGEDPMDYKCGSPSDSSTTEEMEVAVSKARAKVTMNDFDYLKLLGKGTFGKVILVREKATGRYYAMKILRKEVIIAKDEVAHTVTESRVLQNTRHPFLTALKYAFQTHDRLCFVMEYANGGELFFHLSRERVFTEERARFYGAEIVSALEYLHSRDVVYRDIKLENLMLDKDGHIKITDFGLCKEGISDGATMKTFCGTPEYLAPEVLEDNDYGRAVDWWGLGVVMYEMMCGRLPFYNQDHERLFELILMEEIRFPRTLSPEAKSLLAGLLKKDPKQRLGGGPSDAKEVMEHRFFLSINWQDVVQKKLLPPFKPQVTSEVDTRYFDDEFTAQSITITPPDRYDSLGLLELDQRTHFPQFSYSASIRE

`c1ccc(-c2cn3nc(C4CC4)nc3nc2-c2ccc(CN3CC(c4n[nH]c(-c5ccccn5)n4)C3)cc2)cc1` [Example 70.0]: the IC50 in test [1] turned out to be 5 nM; in test [2] it was 7 nM.
For `Cc1cccc(-c2nc(C3CCN(Cc4ccc(-c5nc6nc(C7CC7)nn6cc5-c5ccc(F)cc5)cc4)CC3)n[nH]2)n1` [Example 51.0, 2-cyclopropyl-6-(4-fluorophenyl)-5-(4-{4-[5-(6-methylpyridine-2-yl)-1H-[1,2,4]triazole-3-yl]-piperidine-1-ylmethyl}-phenyl)-[1,2,4]triazolo[1,5-a]pyrimidine] the same measures were 46 nM and 41 nM.
For `Cc1nc2nc(-c3ccc(CN4CCC(c5n[nH]c(-c6ccccn6)n5)CC4)cc3)c(-c3cccc(F)c3)cn2n1` [Example 49.1, 6-(3-fluorophenyl)-2-methyl-5-{4-[4-(5-pyridine-2-yl)-1H-[1,2,4]triazole-3-yl)-piperidine-1-ylmethyl]-phenyl]-[1,2,4]triazolo[1,5-a]pyrimidine formiate] the same measures were 129 nM and 28 nM.
Consider `Cc1cccc(-c2nc(C3CCN(Cc4ccc(-c5nc6ncc(Br)n6cc5-c5ccc(F)cc5)cc4)CC3)n[nH]2)n1` [Example 53.0, 3-bromo-6-(4-fluorophenyl)-7-(4-{4-[5-(6-methylpyridine-2-yl)-1H-[1,2,4]triazole-3-yl]-piperidine-1-ylmethyl}-phenyl)-imidazo[1,2-a]pyrimidine], for which the IC50 came out at 7 nM in test [1] and 11 nM in test [2].
As for `CC(C)c1nc2nc(-c3ccc(CN4CC(c5n[nH]c(-c6ccccn6)n5)C4)cc3)c(-c3ccccc3)cn2n1` [Example 29.0], the half-inhibitory concentration (IC50) in test [1] stood at 35 nM; in test [2], 84 nM.
For `CNc1c(-c2ccccc2)c(-c2ccc(CN3CC(c4n[nH]c(-c5cccc(C)n5)n4)C3)cc2)nc2nc(C)cn12` [Example 61.0, methyl-(2-methyl-7-{4-{3-[5-(6-methylpyridine-2-yl)-1H-[1,2,4]triazole-3-yl)-azetidine-1-ylmethyl]-phenyl}-6-phenyl-imidazo[1,2-a]pyrimidin-5-yl)-amine] the same measures were 19 nM and 11 nM.
For `c1ccc(-c2cn3ccnc3nc2-c2ccc(CN3CCC(c4cnc5ccccc5n4)CC3)cc2)cc1` [Example 10.0, 2-{1-[4-(6-phenyl-imidazo[1,2-a]pyrimidin-7-yl)-benzyl]-piperidine-4-yl}-quinoxaline] the same measures were 9 nM and 4 nM.
For `Fc1ccc(-c2cn3ccnc3nc2-c2ccc(CN3CC(c4n[nH]c(-c5ccccn5)n4)C3)cc2)cc1` [Example 33.0, 6-(4-fluorophenyl)-7-{4-[3-(5-pyridine-2-yl-1H-[1,2,4]triazole-3-yl]-azetidine-1-ylmethyl]-phenyl}-imidazo[1,2-a]pyrimidine] the same measures were 253 nM and 26 nM.
Turning to `Cc1cccc(-c2nc(C3CCN(Cc4ccc(-c5nc6nccn6cc5-c5ccccc5F)cc4)CC3)n[nH]2)n1` [Example 54.0, 6-(2-fluorophenyl)-7-(4-{4-[5-(6-methylpyridine-2-yl)-1H-[1,2,4]triazole-3-yl]-piperidine-1-ylmethyl}-phenyl)-imidazo[1,2-a]pyrimidine], the IC50 worked out at 17 nM in test [1] and 3 nM in test [2].
For `Cc1nc2nc(-c3ccc(CN4CCC(c5n[nH]c(-c6cnccn6)n5)CC4)cc3)c(-c3ccc(F)cc3F)cn2n1` [Example 50.2, 6-(2,4-difluorophenyl)-2-methyl-5-[4-{4-(5-pyrazine-2-yl-1H-[1,2,4]triazole-3-yl)-piperidine-1-ylmethyl]-phenyl}-[1,2,4]triazolo[1,5-a]pyrimidine], in that order: 1100 nM and 355 nM.
For `Clc1cnc2nc(-c3ccc(CN4CC(c5nnc(-c6ccccn6)[nH]5)C4)cc3)c(-c3ccccc3)cn12` [Example 5.0, 3-Chloro-6-phenyl-7-(4-{[3-(5-pyridin-2-yl-1,2,4-triazol-3-yl)azetidin-1-yl]methyl}phenyl)imidazo[1,2-a]pyrimidine], in that order: 11 nM and 6 nM.
As for `Fc1ccc(-c2cn3nc(C4CC4)nc3nc2-c2ccc(CN3CCC(c4n[nH]c(-c5cc(Cl)ccn5)n4)CC3)cc2)cc1` [Example 51.2, 5-(4-{4-[5-(4-chloropyridine-2-yl)-1H-[1,2,4]triazole-3-yl]-piperidine-1-ylmethyl}-phenyl)-2-cyclopropyl-6-(4-fluorophenyl)-[1,2,4]triazolo[1,5-a]pyrimidine], the figures for the IC50 in test [1] and in test [2] were 165 nM and 56 nM, respectively.
For `Cc1nc2nc(-c3ccc(CN4CCC(c5nc6ccc(C#N)cc6[nH]5)CC4)cc3)c(-c3ccccc3)cn2n1` [Example 20.0, 2-{1-[4-(2-methyl-6-phenyl-[1,2,4]triazolo[1,5-a]pyrimidin-5-yl)benzyl]-piperidin-4-yl}-3H-benzimidazole-5-carbonitrile], in that order: 1010 nM and 525 nM.
For `Cc1cccc(-c2nc(C3CN(Cc4ccc(-c5nc6nc(C7CC7)nn6cc5-c5ccc(F)cc5)cc4)C3)n[nH]2)n1` [Example 39.0, 2-cyclopropyl-6-(4-fluorophenyl)-5-(4-{3-[5-(6-methyl-pyridine-2-yl)-1H-[1,2,4]triazole-3-yl]-azetidine-1-ylmethyl}-phenyl)-[1,2,4]triazolo[1,5-a]pyrimidine], in that order: 27 nM and 29 nM.
For `N#Cc1ccc2nc(C3CCN(Cc4ccc(-c5nc6ccnn6cc5-c5ccccc5)cc4)CC3)[nH]c2c1` [Example 12.0, 2-{1-[4-(6-phenyl-pyrazolo[1,5-a]pyrimidin-5-yl)-benzyl]-piperidin-4-yl}-3H-benzimidazol-5-carbonitrile], in that order: 316 nM and 39 nM.
As for `Fc1ccc(-c2cn3ccnc3nc2-c2ccc(CN3CCC(c4cnc5ccccc5n4)CC3)cc2)cc1` [Example 34.0, 2-(1-{4-[6-(4-fluorophenyl)-imidazo[1,2-a]pyrimidin-7-yl]-benzyl}-piperidine-4-yl)-quinoxaline], the figures for the IC50 in test [1] and in test [2] were 2290 nM and 365 nM, respectively.
`CNc1nc2nc(-c3ccc(CN4CC(c5n[nH]c(-c6ccccn6)n5)C4)cc3)c(-c3ccccc3)cn2n1` [Example 43.0, methyl-(6-phenyl-5-{4-[3-(5-pyridin-2-yl-1H-[1,2,4]triazol-3-yl)azetidin-1-ylmethyl]-phenyl}-[1,2,4]triazolo[1,5-a]pyrimidin-2-yl)-amine]: the IC50 in test [2] is 63 nM.
